# Laboratory results published in patent US20050191359A1, “Water soluble nanoparticles and method for their production” (SoluBest Ltd., priority 2001, published 2005).
# Key:
# [1] = Solubility of erythromycin alone and as nano-dispersion with modified starch; type: physicochemical
# [2] = rats, same oral dose of 150 mg/kg; cited from earlier work
# Micrococcus luteus = assay: In vitro microbiological activity, agar petri-dish filter-disc test (zones of bacteriostatic activity versus time); type: cell-based; conditions: identical concentrations of drug; observed until 216 hours post-application
# Protocol: The microbiological activity of various concentrations of water-soluble complexes of clarithromycin prepared in Example 3 was tested on the bacterium Micrococcus luteus, which is sensitive to macrolide antibiotics, and compared to uncomplexed commercial clarithromycin using well-known agar-filled petri-dish tests. Small filter paper cut discs were impregnated with two different solution concentrations (100 or 1,000 μ/ml) of the tested antibiotics. Diameters of the zones pf bacteriostatic activity were measured versus time. […] It was also observed that the difference in microbiological activity for complexed clarithromycin having concentration differences of an order of magnitude between them is vastly greater than the corresponding differences noted with uncomplexed clarithromycin.
solubility of the original drug in water [1] [%],SMILES,"AUC0-24 hours, published data [2] [µg·h/mL]",time until which antibacterial activity continued (Micrococcus luteus)
0.2,"CC[C@H]1OC(=O)[C@H](C)[C@@H](O[C@H]2C[C@@](C)(OC)[C@@H](O)[C@H](C)O2)[C@H](C)[C@@H](O[C@@H]2O[C@H](C)C[C@H](N(C)C)[C@H]2O)[C@](C)(O)C[C@@H](C)C(=O)[C@H](C)[C@@H](O)[C@]1(C)O [Erythromycin, erythromycin]",,
,"CC[C@H]1OC(=O)[C@H](C)[C@@H](O[C@H]2C[C@@](C)(OC)[C@@H](O)[C@H](C)O2)[C@H](C)[C@@H](O[C@@H]2O[C@H](C)C[C@H](N(C)C)[C@H]2O)[C@](C)(OC)C[C@@H](C)C(=O)[C@H](C)[C@@H](O)[C@]1(C)O [commercial clarithromycin, clarithromycin]",32.54,approximately 48 hours
